According to PubChem BioAssay (NCI):
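In this assay, cells in 96-well plates receive the compound at five concentrations for 48 hours. Endpoints are linearly interpolated between the surrounding concentrations. GI50 is the concentration that inhibits growth by half. TGI denotes the concentration required for complete inhibition of growth.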

How the values were obtained:
Assay in all cases: growth of human tumour cells (NCI), 48 h
NCI-H226 lung = tested on: NCI-H226 lung
SR leukemia = tested on: SR leukemia
ACHN renal = tested on: ACHN renal
K-562 leukemia = tested on: K-562 leukemia
SK-MEL-28 melanoma = tested on: SK-MEL-28 melanoma
SN12C renal = tested on: SN12C renal
MCF7 breast = tested on: MCF7 breast
NCI/ADR-RES ovarian = tested on: NCI/ADR-RES ovarian
MOLT-4 leukemia = tested on: MOLT-4 leukemia
HCC-2998 colon = tested on: HCC-2998 colon
TK-10 renal = tested on: TK-10 renal
HCT-116 colon = tested on: HCT-116 colon
M14 melanoma = tested on: M14 melanoma
HOP-62 NSCLC = tested on: HOP-62 NSCLC
SF-539 CNS = tested on: SF-539 CNS
RXF 393 renal = tested on: RXF 393 renal
BT-549 breast = tested on: BT-549 breast
SNB-75 CNS = tested on: SNB-75 CNS
KM12 colon = tested on: KM12 colon
SK-MEL-2 melanoma = tested on: SK-MEL-2 melanoma
PC-3 prostate = tested on: PC-3 prostate
EKVX NSCLC = tested on: EKVX NSCLC
DU-145 prostate = tested on: DU-145 prostate
OVCAR-3 ovarian = tested on: OVCAR-3 ovarian
MDA-MB-231 breast = tested on: MDA-MB-231 breast
A498 renal = tested on: A498 renal
T-47D breast = tested on: T-47D breast
SNB-19 CNS = tested on: SNB-19 CNS
NCI-H23 lung = tested on: NCI-H23 lung
SF-295 CNS = tested on: SF-295 CNS
UACC-62 melanoma = tested on: UACC-62 melanoma
OVCAR-4 ovarian = tested on: OVCAR-4 ovarian
786-0 renal = tested on: 786-0 renal
SK-MEL-5 melanoma = tested on: SK-MEL-5 melanoma
SF-268 CNS = tested on: SF-268 CNS
HCT-15 colon = tested on: HCT-15 colon
CAKI-1 renal = tested on: CAKI-1 renal
A549 NSCLC = tested on: A549 NSCLC
UACC-257 melanoma = tested on: UACC-257 melanoma
SK-OV-3 ovarian = tested on: SK-OV-3 ovarian
MDA-MB-435 = tested on: MDA-MB-435
HOP-92 NSCLC = tested on: HOP-92 NSCLC
OVCAR-5 ovarian = tested on: OVCAR-5 ovarian
MALME-3M melanoma = tested on: MALME-3M melanoma
OVCAR-8 ovarian = tested on: OVCAR-8 ovarian
HL-60(TB) leukemia = tested on: HL-60(TB) leukemia

SMILES: Oc1ccc(CCNc2nc3ccccc3c3[nH]c4ccccc4c23)cc1
- GI50 (NCI-H226 lung): 2.65 µM
- TGI (NCI-H226 lung): 7.3 µM
- GI50 (SR leukemia): 1.48 µM
- TGI (SR leukemia): > 100 µM
- GI50 (ACHN renal): 1.27 µM
- TGI (ACHN renal): 2.52 µM
- GI50 (K-562 leukemia): 1.91 µM
- TGI (K-562 leukemia): > 100 µM
- GI50 (SK-MEL-28 melanoma): 1.61 µM
- TGI (SK-MEL-28 melanoma): 2.98 µM
- GI50 (SN12C renal): 1.27 µM
- TGI (SN12C renal): 2.62 µM
- GI50 (MCF7 breast): 1.37 µM
- TGI (MCF7 breast): 3.16 µM
- GI50 (NCI/ADR-RES ovarian): 2.68 µM
- TGI (NCI/ADR-RES ovarian): 9.28 µM
- GI50 (MOLT-4 leukemia): 0.472 µM
- TGI (MOLT-4 leukemia): > 100 µM
- GI50 (HCC-2998 colon): 1.56 µM
- TGI (HCC-2998 colon): 3.02 µM
- GI50 (TK-10 renal): 1.75 µM
- TGI (TK-10 renal): 3.3 µM
- GI50 (HCT-116 colon): 1.22 µM
- TGI (HCT-116 colon): 2.89 µM
- GI50 (M14 melanoma): 1.73 µM
- TGI (M14 melanoma): 3.26 µM
- GI50 (HOP-62 NSCLC): 1.63 µM
- TGI (HOP-62 NSCLC): 3.35 µM
- GI50 (SF-539 CNS): 1.73 µM
- TGI (SF-539 CNS): 3.19 µM
- GI50 (RXF 393 renal): 1.25 µM
- TGI (RXF 393 renal): 2.66 µM
- GI50 (BT-549 breast): 1.93 µM
- TGI (BT-549 breast): 3.69 µM
- GI50 (SNB-75 CNS): 1.81 µM
- TGI (SNB-75 CNS): 3.82 µM
- GI50 (KM12 colon): 1.2 µM
- TGI (KM12 colon): 2.98 µM
- GI50 (SK-MEL-2 melanoma): 1.73 µM
- TGI (SK-MEL-2 melanoma): 3.36 µM
- GI50 (PC-3 prostate): 1.63 µM
- TGI (PC-3 prostate): 3.31 µM
- GI50 (EKVX NSCLC): 1.91 µM
- TGI (EKVX NSCLC): 3.95 µM
- GI50 (DU-145 prostate): 1.45 µM
- TGI (DU-145 prostate): 3.42 µM
- GI50 (OVCAR-3 ovarian): 1.6 µM
- TGI (OVCAR-3 ovarian): 3.24 µM
- GI50 (MDA-MB-231 breast): 1.36 µM
- TGI (MDA-MB-231 breast): 2.97 µM
- GI50 (A498 renal): 11.5 µM
- TGI (A498 renal): 23.8 µM
- GI50 (T-47D breast): 1.94 µM
- TGI (T-47D breast): 6.34 µM
- GI50 (SNB-19 CNS): 1.83 µM
- TGI (SNB-19 CNS): 5.3 µM
- GI50 (NCI-H23 lung): 1.96 µM
- TGI (NCI-H23 lung): 4.27 µM
- GI50 (SF-295 CNS): 1.38 µM
- TGI (SF-295 CNS): 2.87 µM
- GI50 (UACC-62 melanoma): 1.66 µM
- TGI (UACC-62 melanoma): 3.04 µM
- GI50 (OVCAR-4 ovarian): 1.66 µM
- TGI (OVCAR-4 ovarian): 3.15 µM
- GI50 (786-0 renal): 1.29 µM
- TGI (786-0 renal): 2.69 µM
- GI50 (SK-MEL-5 melanoma): 1.75 µM
- TGI (SK-MEL-5 melanoma): 3.15 µM
- GI50 (SF-268 CNS): 1.71 µM
- TGI (SF-268 CNS): 5.01 µM
- GI50 (HCT-15 colon): 1.16 µM
- TGI (HCT-15 colon): 2.93 µM
- GI50 (CAKI-1 renal): 1.59 µM
- TGI (CAKI-1 renal): 3.76 µM
- GI50 (A549 NSCLC): 1.33 µM
- TGI (A549 NSCLC): 2.75 µM
- GI50 (UACC-257 melanoma): 1.94 µM
- TGI (UACC-257 melanoma): 3.46 µM
- GI50 (SK-OV-3 ovarian): 13.7 µM
- TGI (SK-OV-3 ovarian): 27 µM
- GI50 (MDA-MB-435): 1.6 µM
- TGI (MDA-MB-435): 3.16 µM
- GI50 (HOP-92 NSCLC): 1.3 µM
- TGI (HOP-92 NSCLC): 2.82 µM
- GI50 (OVCAR-5 ovarian): 2.89 µM
- TGI (OVCAR-5 ovarian): 7.18 µM
- GI50 (MALME-3M melanoma): 1.79 µM
- TGI (MALME-3M melanoma): 3.46 µM
- GI50 (OVCAR-8 ovarian): 1.02 µM
- TGI (OVCAR-8 ovarian): 2.29 µM
- GI50 (HL-60(TB) leukemia): 2.4 µM
- TGI (HL-60(TB) leukemia): 5.41 µM
